In patent US20130315829A1, “Compounds and Methods for Detecting Reactive Oxygen Species” (The Regents of the University of California, priority 2010, published 2013):

Columns and labels:
LNCaP-luc tumors = test: LNCaP-luc tumor xenograft model in SHO mice; format: in vivo, mouse
Experimental: Animals. […] Mice were single or group-housed on a 12:12 light-dark cycle at 71° C. with free access to food and water.
Tumor xenografts were created via i.p. injection of 3×10̂6 LNCaP-luc cells (100 μL, 1:1 PBS:Matrigel) in adult SHO mice. Tumor size was monitored by injecting 0.5-5 μmol D-lucifeirn (potassium salt, Gold Biotech., St. Louis, Mo.) in PBS. At least two weeks post-inoculation, tumors were injected with PCL-1, valeryl luciferin, testosterone propionate and N-acetylcysteine in various combinations to obtain the experimental data. On day one of the experiments, mice were injected with either PCL-1 (0.5 μmol) or valeryl luciferin (0.44 μmol) and imaged for 45 minutes using an IVIS spectrum. To determine the effect of testosterone on the tumors, the mice were injected with testosterone propionate (3 mg in 50 μL sesame oil) on day 2, followed 1.5 hours later by an injection of PCL-1 (0.5 μmol) or valeryl luciferin (0.44 μmol). Controls for the testosterone experiment were completed by injecting sesame oil (50 μL) on day 2, followed by the probe (0.5 μmol) or valeryl luciferin (0.44 μmol) 1.5 hours later. Additional experiments with N-acetylcysteine were completed by injecting the mice with testosterone propionate (3 mg in 50 μL sesame oil) on day 2, followed 1.5 hours later by injections of N-acetylcysteine (0.2 mg in 100 μL PBS) and PCL-1 (0.5 μmol). Day 2 injections were followed by 45 minutes of imaging.
To study the stimulatory effects of testosterone and H2O2 production in prostate cancer in living animals, an intraperitoneal (i.p.) LNCaP-luc tumor xenograft model was developed in immunodeficient severe combined immunodeficiency hairless outbred (SHO) mice. To determine the baseline levels of H2O2 generation in the tumors as well as alterations in H2O2 fluxes over 24 hours, mice were injected with PCL-1 on Day 1 and with sesame oil, a vehicle used for all experiments, and PCL-1 after 24 hours on Day 2. […] The effects of testosterone (in the form of testosterone propionate) on H2O2 production were tested within the prostate cancer tumors. For these experiments, mice were injected with PCL-1 on Day 1 and the baseline signal was measured. On Day 2, the mice were injected either with testosterone propionate and then PCL-1, or empty vehicle and PCL-1.
These experiments were performed by injecting mice on Day 2 with testosterone propionate, followed by serial application of NAC and PCL-1.

FVB-luc mice [1] = test: In vivo antioxidant experiments in FVB-luc mice; set-up: species or system mouse; settings: NAC 0.2 mg i.p. then PCL-1 i.p., total photon flux over one hour
Text: (§1) A Xenogen IVIS Spectrum instrument (Caliper Life Sciences, Hopkinton, Mass.) was used for bioluminescent imaging in all in vivo experiments. Phosphate Buffered Saline (PBS) was purchased from Thermo Fisher Scientific (Waltham, Mass.). Isoflurane was purchased from Phoenix Pharmaceuticals, Inc. (St. Joseph, Mo.), and sterile DMSO was purchased from Sigma-Aldrich (St. Louis, Mo.). Medical grade oxygen was purchased from Praxair (Danbury, Conn.).
(§2) Animals. FVB-luc (FVB-Tg(CAG-luc,-GFP)L2G85Chco/J) mice were obtained from UC Davis, and SHO mice were obtained from Charles River Labs. Mice were single or group-housed on a 12:12 light-dark cycle at […] with free access to food and water. All studies were approved and performed according to the guidelines of the Animal Care and Use Committee of the University of California, Berkeley.
Adult FVB-luc mice were anesthetized with isoflurane and injected with N-acetylcysteine (0.2 mg, 100 μL PBS, pH 7-8), followed immediately by an i.p. injection of PCL-1 (5 μmol, 50 μL 1:1 DMSO:PBS). Control mice were injected with 100 μL PBS and PCL-1.
(§3) PCL-1 was applied to molecular imaging of H2O2 in living animals. Initial studies utilized FVB-luc mice that ubiquitously express firefly luciferase along with exogenous peroxide addition. […]

LNCaP-luc cells [2] = test: Bioluminescence of LNCaP-luc cells with PCL-1 and exogenous H2O2; format: cell-based, human; settings: PCL-1 50 μM
Experimental: A Xenogen IVIS Spectrum instrument (Caliper Life Sciences, Hopkinton, Mass.) was used for bioluminescent imaging in all ex vivo experiments. LNCaP-luc cells (kindly provided by Chris Contag, Stanford University) were cultured in Dulbecco's Modified Eagle Medium (DMEM) containing 10% Fetal Bovine Serum (FBS). Cells were split twice per week. Prior to assaying, cells were passed and plated (4×10^4 cells/well) in black 96-well plates with clear bottoms (Becton Dickinson and Company, Franklin Lakes, N.J.). Two days after being plated, once the cells were ca. 95% confluent, the medium was removed and PCL-1 (2.5% final DMSO concentration) and H2O2 (2.5-500 μM final concentrations) in DMEM (−FBS) were added. The plate was immediately imaged for 2 hours. For stimulation experiments, the cells (ca. 95 confluent) were incubated with paraquat (0 or 500 μM, 100 μL DMEM+10% FBS) for 24 hours prior to the addition of PCL-1 (50 μM) with or without catalase (1×10̂4 U/L).
With data showing that PCL-1 is a selective and sensitive bioluminescent reporter for H2O2 in aqueous solution, this system was applied to imaging changes in H2O2 levels in cell culture. […] To achieve this goal, PCL-1 and H2O2 were added to LNCaP-luc cells stably transfected with the firefly luciferase gene. In the absence of H2O2, the bioluminescent signal from the cells was negligible. In contrast, addition of 2.5 to 500 μM H2O2 triggers a linear increase, up to 250 μM, in the total observed photon flux (FIG. 3). The 2.5 μM detection limit for H2O2 is well within estimated concentration ranges of endogenously produced H2O2 fluxes.
Total photon flux, integrated over 2 h, from LNCaP-luc cells with PCL-1 (50 μM) and H2O2 (2.5-500 μM) in DMEM. All values show statistically significant differences (p<0.001) except between 250 and 500 μM H2O2. (b) Total photon flux, integrated over 2 h, from LNCaP-luc cells incubated with paraquat (0 or 500 μM) for 24 h, followed by addition of PCL-1 (50 μM)±catalase (1×10̂4 U/L). […]

FVB-luc mice [3] = test: In vivo exogenous H2O2 experiments in FVB-luc mice; set-up: species or system mouse; settings: PCL-1 i.p. 0.5 μmol
Text: as §1, §2
Adult FVB-luc mice were anesthetized with isoflurane and injected (i.p.) with PCL-1 (0.5 μmol, 50 μL 1:1 DMSO:PBS), followed immediately by an i.p. injection of H2O2 (0.0375, 0.15, 0.6, and 2.4 μmol in 100 μL PBS). Control mice were injected with PCL-1 and 100 μL PBS.
as §3

[4] = In vitro ROS selectivity test with purified firefly luciferase: other ROS; format: biochemical; settings: PCL-1 5 μM, ROS 100 μM, 5-60 minutes, then firefly luciferase
Experimental: (§4) Millipore water was used to prepare all aqueous solutions. Measurements for in vitro tests were performed in 50 mM Tris buffer, pH 7.4, with 10 mM MgCl2, 0.1 mM ZnCl2, and 2 mM ATP at 37° C. Bioluminescent measurements for in vitro tests were recorded using a Molecular Devices SpectraMax M2 plate reader (Sunnyvale, Calif.). Samples for bioluminescent measurements were placed in white, opaque 96-well plates, which were purchased from Corning Inc. (Corning, N.Y.). ATP was purchased from MP Biomedicals (Solon, Ohio), and luciferase was purchased from Promega (Madison, Wis.).
(§5) Various reactive oxygen species (ROS, 100 μM) were administered to PCL-1 (5 μM) in the Tris buffer as follows. Hydrogen peroxide (H2O2), tert-butyl hydroperoxide (TBHP), and hypochlorite (OCl^−) were delivered from 30%, 70%, and 6.15% aqueous solutions, respectively. […]
(§6) Initial experiments tested the ability of PCL-1 to detect H2O2 in a selective and concentration-dependent manner. […] PCL-1 was incubated with various ROS for 5-60 minutes followed by addition of firefly luciferase, and then light production was measured over 45 minutes to determine whether luciferin was produced during the ROS incubation period. The total normalized photon flux was calculated by dividing each total photon flux by the zero timepoint total photon flux for each run to allow a direct comparison between various ROS. […]

[5] = In vitro ROS selectivity test with purified firefly luciferase: H2O2; format: biochemical; settings: PCL-1 5 μM, H2O2 100 μM, over an hour, then firefly luciferase; light integrated over 45 minutes
Experimental: as §4, §5, §6

LNCaP-luc cells [6] = test: Paraquat stimulation of endogenous H2O2 in LNCaP-luc cells, with or without catalase; format: cell-based, human
Experimental: A Xenogen IVIS Spectrum instrument (Caliper Life Sciences, Hopkinton, Mass.) was used for bioluminescent imaging in all ex vivo experiments. […] Cells were split twice per week. Prior to assaying, cells were passed and plated (4×10^4 cells/well) in black 96-well plates with clear bottoms (Becton Dickinson and Company, Franklin Lakes, N.J.). Two days after being plated, once the cells were ca. 95% confluent, the medium was removed and PCL-1 (2.5% final DMSO concentration) and H2O2 (2.5-500 μM final concentrations) in DMEM (−FBS) were added. The plate was immediately imaged for 2 hours. For stimulation experiments, the cells (ca. 95 confluent) were incubated with paraquat (0 or 500 μM, 100 μL DMEM+10% FBS) for 24 hours prior to the addition of PCL-1 (50 μM) with or without catalase (1×10̂4 U/L).
To determine whether PCL-1 could detect endogenously produced H2O2 in living cells, LNCaP-luc cells were incubated with 500 μM paraquat for 24 hours, as previous work establishes that paraquat triggers elevations in intracellular H2O2 through disruption of the mitochondrial electron transport chain. Following paraquat stimulation, the LNCaP-luc cells were loaded with PCL-1 and the subsequent bioluminescent signal was detected.
Because luciferin is a cell-permeable small molecule, two possible modes of action for PCL-1 are (i) reaction of this probe with H2O2 in the extracellular medium followed by cellular uptake of the free luciferin product, or (ii) reaction of PCL-1 with intracellular H2O2 to generate luciferin within cells. To probe whether PCL-1 was reacting with H2O2 in the intra- or extracellular space, catalase was added as a cell-impermeable scavenger for extracellular H2O2 with paraquat stimulation.

CC(=O)N[C@@H](CS)C(=O)O [NAC, N-acetylcysteine]
bioluminescent signal in testosterone-stimulated animals after NAC treatment (LNCaP-luc tumors; SHO mice with LNCaP-luc tumors, testosterone propionate 3 mg, then NAC 0.2 mg and PCL-1 0.5 μmol): reduction in bioluminescent signal in testosterone-stimulated animals back to baseline levels | bioluminescent signal of NAC-treated animals compared to vehicle control animals (FVB-luc mice [1]): significantly reduced bioluminescent signal

O=C(O)[C@H]1CSC(c2nc3ccc(OCc4ccc(B(O)O)cc4)cc3s2)=N1 [PCL-1, (S)-2-(6-(4-Boronobenzyloxy)benzo[d]thiazol-2-yl)-4,5-dihydrothiazole-4-carboxylic acid]
detection limit for H2O2 (LNCaP-luc cells [2]): 2.5 µM | H2O2 concentration up to which total observed photon flux increases linearly (LNCaP-luc cells [2]; H2O2 2.5 to 500 μM, integrated over 2 h): up to 250 μM | bioluminescent signal from the cells in the absence of H2O2 (LNCaP-luc cells [2]; no H2O2): negligible | bioluminescence of mice treated only with PCL-1, no added peroxide (FVB-luc mice [3]): modest but measurable bioluminescence | integrated total photon flux as a function of the H2O2 concentration (FVB-luc mice [3]; then H2O2 i.p., integrated over one hour): dose-dependent increase in signal | increase in bioluminescent signal on reaction with the other ROS [4]: little to no increase in signal | increase in bioluminescent signal (total normalized photon flux) on addition of H2O2 [5]: approximately seven-fold | change in basal bioluminescent signal from Day 1 to Day 2 (LNCaP-luc tumors; SHO mice with LNCaP-luc tumors, PCL-1 0.5 μmol Day 1, sesame oil and PCL-1 Day 2): no change in basal bioluminescent signal

O=C(O)[C@H]1CSC(c2nc3ccc(O)cc3s2)=N1 [luciferin]
time after injection at which the signal peak is reached (LNCaP-luc tumors; LNCaP-luc cells, peak before first imaging timepoint): < 1 min

C[n+]1ccc(-c2cc[n+](C)cc2)cc1 [paraquat, reference compound]
PCL-1 derived luminescence compared to unstimulated control cells (LNCaP-luc cells [6]; 500 μM paraquat for 24 hours, then PCL-1 50 μM): patently higher

CCC(=O)O[C@H]1CC[C@H]2[C@@H]3CCC4=CC(=O)CC[C@]4(C)[C@H]3CC[C@]12C [testosterone propionate]
increase in total photon flux compared to vehicle control mice (LNCaP-luc tumors; SHO mice with LNCaP-luc tumors, testosterone propionate 3 mg in sesame oil, PCL-1 0.5 μmol 1.5 h later): approximately 41%

catalase
bioluminescence signal with catalase plus paraquat compared to paraquat alone (LNCaP-luc cells [6]; 500 μM paraquat 24 h, PCL-1 50 μM, catalase 1×10^4 U/L): decrease in bioluminescence signal | PCL-1 bioluminescence of catalase-treated cells compared to untreated specimens (LNCaP-luc cells [6]; no paraquat, PCL-1 50 μM, catalase 1×10^4 U/L): reduces the level of PCL-1 bioluminescence
